Experimental data taken from paper PMC4467461, “Small-molecule activation of SERCA2a SUMOylation for the treatment of heart failure” (Nature Communications, 2015).

Tested on: SERCA2a
Test: SERCA2a ATPase activity assay (coupled enzyme) in cardiomyocytes
Assay type: cell-based, Sprague–Dawley rats
Protocol: Figure 1 N106 increases SERCA2a’s cellular activity and SUMOylation in adult cardiomyocytes. In-vitro characterization of activators of SERCA2a SUMOylation. Cell-based screening of small molecules identified one promising compound. Adult ventricular cardiomyocytes were isolated from Sprague–Dawley rats and treated with small molecules on dose-dependent manner for 24 h. DMSO-treated cardiomyocytes were used as a negative control. (a) Chemical structure of SERCA2a SUMOylation activator. N106, N-(4-methoxybenzo[d]thiazol-2-yl)-5-(4-methoxyphenyl)-1,3,4-oxadiazol-2-amine. (b-g) The effects of N106 compound in cardiomyocyte contractility and calcium transient. The dose-dependent effects of N106 compound presented on peak shortening, the time to maximal departure velocity, the time to maximal return velocity, calcium ratio, decay time constant (τ) and the time to 90% baseline (t90) fluorescence in cardiomyocytes were assessed using a video-based edge-detection system (IonOptix Inc.). n=25 cardiomyocytes from each three of hearts per condition. […] The ATPase activity were measured at 25 °C in 50 mM MOPS, 100 mM KCl, 5 mM MgCl2, 1 mM […] at pCa 5.0 by using a coupled enzyme system consisting of pyruvate kinase and lactate dehydrogenase, and monitoring the oxidation of the reduced form of NADH at […]. The enzyme activity was determined by using same set of cardiomyocytes. […]

- SERCA2a’s ATPase activity, time course (10 μM, 10∼30 min, sustained at 24 h): increased
- SERCA2a ATPase activity (increasing N106 concentration, 24 h, pCa 5.0): increased
Compound: COc1ccc(-c2nnc(Nc3nc4c(OC)cccc4s3)o2)cc1 [Compound N106, N-(4-methoxybenzo[d]thiazol-2-yl)-5-(4-methoxyphenyl)-1,3,4-oxadiazol-2-amine]
